Data as given in patent publication US9079863B2, “Crystalline forms for 5-amino-2,3-dihydrophthalazine-1,4-dione sodium salt, pharmaceutical preparations containing the same and method for the production of said forms” (METRIOPHARM AG, priority 2010, dated 2015).
Where a name gives a salt, the structure may show the parent alone. Read-outs that look alike come from different tables or passages of the source.

Tests used:
[1] = for Endothermous solid phase transformation: 30-300° C. under helium; for Endothermous solid phase transformation / Disintegration temperature: sodium salt; for Disintegration temperature: 30-500° C. in synthetic air (4 N2: 1 O2)
Description: (Table 5). The solid phase transformation of the dihydrate according to U.S. Pat. No. 6,483,326 B1 was measured by means of the simultaneous thermogravimetry-differential thermal analysis with a Linseis L81-077 coupled with mass spectroscopy measurement with a Netzsch STA 449 C thermobalance, with MS and FTIR coupling at 30-300° C. under helium. The disintegration temperatures of forms I-II were determined with the same device at 30-500° C. in synthetic air (4 N2: 1 O2). The data were analyzed with the factory-set software Proteus.

physchem = conditions: in water at room temperature, saturated solution
Description: Further, the solubility of the crystalline forms in a saturated solution was determined.

S. pyogenes [2] = conditions: 48 hours after the infection
Description: (§1) In a mouse model of the Gram-positive sepsis (infection with S. pyogenes) the therapeutic usability of the crystal forms I and II of the 5-amino-2,3-dihydrophthalazine-1,4-dione sodium salt was tested. The administration of active ingredient was made parenterally 6 hours after the infection occurred. A second administration of active ingredient was made 24 hours after the first application. The test was completed 48 hours after the infection. For both forms (substance groups) three different doses were used. The mice obtained 2, 20 or 200 μg each of form I or form II per animal and application.
(§2) The individual treatment groups comprised 5 animals each, and for the not infected controls two repetitions and for the infected controls and that groups that contained form II four repetitions were made, so that in total 180 animals were in the test.
In the sepsis model described in Example 3, the influence the crystal forms II and I of the 5-amino-2,3-dihydrophthalazine-1,4-dione sodium, salt on the probability of survival of the mice infected with S. pyogenes was tested.

[3] = test system: isolated mouse macrophages
Description: For this purpose, the macrophages were first treated with form I (20 or 200 μg/mL). After 1 hour the treated macrophages were stimulated with LPS (10, 100 or 1,000 ng/mL). The supernatants were collected 24 h later, and the concentration of TNF-alpha and IL-6 was measured. Not stimulated macrophages, not stimulated macrophages treated with 200 μg/mL form I and LPS-stimulated macrophages (10, 100 or 1,000 ng/mL LPS) were used as controls.

[4] = healthy mice
Description: as §1
Blood taking occurred after 48 hours at the end of the second application day.

[5] = 0.25 g in 10 mL H2O VE, stirring 500 rpm, 25° C., first minutes after addition; sodium salt
Description: The complete dissolution of 0.25 g form I or form II, respectively, in 10 mL H2O VE was achieved under stirring (500 rpm) at 25° C.

S. pyogenes [6] = conditions: for Germ load (CFU) Blood MW / Germ load (CFU) Liver MW: 48 hours after the infection, sodium salt
Description: as §1, §2
In the sepsis model described in Example 3, the influence of crystal forms II and I of the 5-amino-2,3-dihydrophthalazine-1,4-dione sodium salt on the germ load of the mice infected with S. pyogenes in blood and liver was tested. The test was completed 48 hours after the infection, and the germ load (CFU) existing at this time in blood and liver was determined (see Table).

[7] = not infected mice; for Weight development/increase MW: over two days
Description: as §1, §2
It is known that the toxicity of substances in an animal test with growing-up mice or rate can influence the weight development.

S. pyogenes [8] = conditions: for Weight development/increase Total MW / Weight development/increase Day 1 MW: infected mice, sodium salt; for Weight development/increase Total MW: complete test time 48 h, survivors
Description: as §1, §2
In the sepsis model described in Example 3, the influence of crystal forms I and II of the 5-amino-2,3-dihydrophthalazine-1,4-dione sodium salt on the weight development of mice infected with S. pyogenes was tested. The development of the body weight during an acute infection may supply important predictive information.

[9] = healthy mice, end of the second application day
From the text: When administering form I and form II to healthy mice, it was investigated, whether and which influence the application has on certain liver enzymes, in particular the transaminases GOT (AST) and GPT (ALT). Blood taking occurred at the end of the second application day.

[10] = 200 μg/mL, not stimulated macrophages (no LPS)
[11] = dose 20 μg, LPS 10 ng/mL, supernatant 24 h
[12] = dose 20 μg, LPS 100 ng/mL, supernatant 24 h
[13] = dose 20 μg, LPS 1 mg/mL, supernatant 24 h
[14] = dose 200 μg, LPS 10 ng/mL, supernatant 24 h
[15] = dose 200 μg, LPS 100 ng/mL, supernatant 24 h
[16] = dose 200 μg, LPS 1 mg/mL, supernatant 24 h

Nc1cccc2c(=O)[nH][nH]c(=O)c12 [Dihydrate, 5-amino-2,3-dihydrophthalazine-1,4-dione sodium salt]
Endothermous solid phase transformation ([1]; listed as dihydrate): 85 °C | Endothermous solid phase transformation [1]: 85 °C ± 10 °C | Solubility (physchem; sodium salt): 168 mg/mL

Nc1cccc2c(=O)[nH][nH]c(=O)c12 [Form I, 5-amino-2,3-dihydrophthalazine-1,4-dione sodium salt]
Share of surviving mice (S. pyogenes [2]; 2 μg, sodium salt): 80% | Share of surviving mice (S. pyogenes [2]; 20 μg): 80% | Share of surviving mice (S. pyogenes [2]; 200 μg, sodium salt): 80% | Survival compared to the controls (S. pyogenes [2]): increase of the share of surviving animals | Share of surviving mice (S. pyogenes [2]; all doses (total)): 80% | Immunodepressive effect ([3]; 100 ng/5 mL LPS, 200 μg/mL): most distinct | Change of TNF-alpha values ([3]; 1 μg/mL LPS with 200 μg/mL): significant reduction | Effect on not stimulated macrophages by TNF-alpha values ([3]; 200 μg/mL, not stimulated): immunostimulating effect | IL-6 MW [3, 10]: 0.24 ng/mL | TNF-alpha MW [3, 10]: 7.98 ng/mL | Effect in the combination groups with LPS ([3]; all LPS groups): dose-dependent, immunodepressive effect | IL-6 MW [3, 11]: 6.05 ng/mL | TNF-alpha MW [3, 11]: 13.27 ng/mL | IL-6 MW [3, 12]: 19.67 ng/mL | TNF-alpha MW [3, 12]: 27.17 ng/mL | IL-6 MW [3, 13]: 22.67 ng/mL | TNF-alpha MW [3, 13]: 47.91 ng/mL | IL-6 MW [3, 14]: 7.19 ng/mL | TNF-alpha MW [3, 14]: 20.74 ng/mL | IL-6 MW [3, 15]: 10.88 ng/mL | TNF-alpha MW [3, 15]: 16.47 ng/mL | IL-6 MW [3, 16]: 15.95 ng/mL | TNF-alpha MW [3, 16]: 32.53 ng/mL | TNF-alpha MW ([4]; 2 μg, blood after 48 hours, sodium salt): 128.8 pg/mL | TNF-alpha versus control groups and form II groups ([4]; 20 μg dose, p<0.001): significantly different | TNF-alpha MW ([4]; 20 μg, blood after 48 hours, sodium salt): 341.8 pg/mL | TNF-alpha MW ([4]; 200 μg, blood after 48 hours, sodium salt): 154.1 pg/mL | TNF-alpha MW ([4]; all doses (total), blood after 48 hours, sodium salt): 208.2 pg/mL | IL-6 increase ([4]; blood after 48 hours): neither in the substance groups nor in the control groups increases could be found | TNF-alpha increase ([4]; compared to the other groups, sodium salt): distinct increases | Initial dissolution rate [5]: only retarded reaches its complete equilibrium concentration | Disintegration temperature ([1]; listed as form I): 335 °C | Disintegration temperature [1]: 335 °C ± 10 °C | Time for which the crystalline form is stable ([1]; room temperature (25° C.) and 40° C.): at least two | Germ load (CFU) Blood MW (S. pyogenes [6]; 2 μg): 7.00 log/mL | Germ load (CFU) Liver MW (S. pyogenes [6]; 2 μg): 6.56 log/g | Germ load (CFU) Blood MW (S. pyogenes [6]; 20 μg): 6.33 log/mL | Germ load (CFU) Liver MW (S. pyogenes [6]; 20 μg): 6.57 log/g | Germ load (CFU) Blood MW (S. pyogenes [6]; 200 μg): 5.77 log/mL | Germ load (CFU) Liver MW (S. pyogenes [6]; 200 μg): 6.09 log/g | Germ load (CFU) Blood MW (S. pyogenes [6]; all doses (total)): 6.37 log/mL | Germ load (CFU) Liver MW (S. pyogenes [6]; all doses (total)): 6.41 log/g | Germ count in the blood compared to the controls (S. pyogenes [6]; highest dose): tendentious germ count reduction | Solubility (physchem; water, thermodynamic from solid, Solubility): 227 mg/mL | Toxicity judged from weight development [7]: do not have any toxicity or at most a very small one | Weight development/increase MW ([7]; 2 μg per animal and application, parenteral, sodium salt): -0.49 g | Weight development/increase MW ([7]; 20 μg per animal and application, parenteral, sodium salt): 1.48 g | Weight development/increase MW ([7]; 200 μg per animal and application, parenteral, sodium salt): 0.79 g | Weight development/increase MW ([7]; all doses (total)): 0.59 g | Weight loss compared to control groups (S. pyogenes [8]; first 24 hours after the infection): lower weight losses | Weight development/increase Total MW (S. pyogenes [8]; 2 μg): -2.41 g | Weight development/increase Day 1 MW (S. pyogenes [8]; 2 μg): -0.64 g | Weight development/increase Total MW (S. pyogenes [8]; 20 μg): -1.46 g | Weight development/increase Day 1 MW (S. pyogenes [8]; 20 μg): -0.09 g | Weight development/increase Total MW (S. pyogenes [8]; 200 μg): -1.69 g | Weight development/increase Day 1 MW (S. pyogenes [8]; 200 μg): -0.03 g | Weight development/increase Total MW (S. pyogenes [8]; all doses (total)): -1.85 g | Weight development/increase Day 1 MW (S. pyogenes [8]; all doses (total)): -0.25 g | Transaminases GOT (AST) and GPT (ALT) [9]: Distinct differences between the groups could not be found
